Results from patent EP0733369A1, “Protease inhibitors, a DNA construct for the expression of a protease and a process for measuring proteases and/or protease inhibitors” (Stichting REGA V.Z.W., priority 1995, dated 1996).
“Also recorded” adds a separate entry of the source. Where a name gives a salt, the structure may show the parent alone.

Molecular target: gelatinase B from neutrophils (Homo sapiens, UniProt P14780)
Test: gelatinase (inhibitor) microtiter plate assay with biotinylated gelatin
Type: biochemical
Design: endogenous in cells; host or cells: human neutrophils stimulated with lipopolysaccharide; conditioned medium
Details: for gelatinase B inhibitory activity in the plate assay (in words): qualitative statements
Description: The measurement of gelatinase activity was based on the detection of non-degraded biotinylated gelatin with a streptavidin-peroxidase conjugate. This test is based on the biotin-avidin method described by Sorbi et al. (25) but modified to a one plate assay (schematically represented in Fig. 1.). Gelatin (1mg/ml) was dissolved in 0.1 M sodium bicarbonate pH 8.3 by heating to 40°C. Biotin-N-hydroxysuccinimide ester was dissolved in dimethylsulfoxide (Me2SO) and was added to the gelatin in a 15-fold molar excess. The mixture was allowed to react overnight at 4°C and the biotinylated gelatin was then dialyzed against phosphate buffered saline (PBS). Neutrophil granulocyte (Neu) medium was collected from human neutrophils after stimulation with lipopolysaccharide (1µg/ml) overnight at 37°C in Minimal Essential Medium. Cells were removed by 10 min centrifugation at 1000 g. Purified gelatinase was obtained by one-step affinity chromatography of neutrophil medium on a gelatin-sepharose column as described (8).
Modified flat bottom 96-well ELISA plates were coated overnight with 0.5 µg/ml avidin in distilled water. The plates were then blocked with 0.3% bovine serum albumin (BSA, Sigma) in PBS for 1 hour at 37°C. Biotinylated gelatin was diluted to 50 µg/ml and 100µl was added to the avidin-coated wells. After incubation for one hour at 20°C, the plate was rinsed with PBS. Medium containing the secreted gelatinases from human neutrophils (dilution range 1/3-1/3^11) and the inhibitors were diluted in incubation buffer (50 mM Tris-HCl pH 7.5, 10 mM CaCl2, 0.02% (W/V) NaN3, 1% (V/V) Triton X-100) and 100 µl of each were mixed. 190 µl of the mixture was added to the gelatin-coated plates and allowed to digest the gelatin overnight at 37°C. The plates were then washed with PBS and each well was incubated with 100 µl peroxidase-conjugated-streptavidin at a 1:2000 dilution for 1 hour at 37°C. After rinsing the plate, the ABTS substrate was added (0.5 mg/ml solution containing 0.1 M citric acid, 0.2 M Na2HPO4, pH 4.3, 0.07 µl/ml 30% H2O2) and the optical density was read at 405 nm after 10 min. incubation at room temperature. Additional information on published test systems used here for comparison.
Gelatin is biotinylated and bound to avidin-coated microtiter plates. By addition of gelatinases the number of free biotin groups decreases and proportionally less streptavidin-peroxidase is bound to the residual substrate. Bound streptavidin-peroxidase activity is measured spectrophotometrically by reaction of peroxide with ABTS. Inhibition of gelatinase is obtained by the addition of inhibitor to a known amount of gelatinase prior to application to the plates. The peroxidase activity increases proportionally with the inhibitory activity.
Plates were first coated with 10µg/ml avidin and 50µg/ml biotinylated gelatin (theoretically saturating the avidin binding sites). As the sensitivity of the assay is dependent on the detection of the minimal amount of degraded biotinylated gelatin, we investigated wether decreasing the amount of biotin-gelatin (50 µg/ml-23 ng/ml) bound to the avidin-coated (10µg/ml) plate increased the sensitivity of the assay. […] Thus it was verified whether a decrease in the avidin coating could make the assay more sensitive (Fig. 2). […] In all further examples plates were coated with 0.5 µg/ml avidin and 50 µg/ml gelatin-biotin.
The titration curves of gelatinase inhibition were always related to a blanc curve and this for enzyme concentrations within the slope of the curve (vertical dotted lines Fig. 3). The decrease in enzyme activity to which the inhibitor-incubated sample corresponded was defined as the inhibition factor (IF).

[1] = tetracycline concentration 1.67 mg/ml
[2] = tetracycline concentration 3.33 mg/ml
[3] = tetracycline concentration 3.33 mg/ml, HCl
[4] = tetracycline concentration 0,83 mg/ml

gelatinase B from neutrophils, sequence (P14780 94-707): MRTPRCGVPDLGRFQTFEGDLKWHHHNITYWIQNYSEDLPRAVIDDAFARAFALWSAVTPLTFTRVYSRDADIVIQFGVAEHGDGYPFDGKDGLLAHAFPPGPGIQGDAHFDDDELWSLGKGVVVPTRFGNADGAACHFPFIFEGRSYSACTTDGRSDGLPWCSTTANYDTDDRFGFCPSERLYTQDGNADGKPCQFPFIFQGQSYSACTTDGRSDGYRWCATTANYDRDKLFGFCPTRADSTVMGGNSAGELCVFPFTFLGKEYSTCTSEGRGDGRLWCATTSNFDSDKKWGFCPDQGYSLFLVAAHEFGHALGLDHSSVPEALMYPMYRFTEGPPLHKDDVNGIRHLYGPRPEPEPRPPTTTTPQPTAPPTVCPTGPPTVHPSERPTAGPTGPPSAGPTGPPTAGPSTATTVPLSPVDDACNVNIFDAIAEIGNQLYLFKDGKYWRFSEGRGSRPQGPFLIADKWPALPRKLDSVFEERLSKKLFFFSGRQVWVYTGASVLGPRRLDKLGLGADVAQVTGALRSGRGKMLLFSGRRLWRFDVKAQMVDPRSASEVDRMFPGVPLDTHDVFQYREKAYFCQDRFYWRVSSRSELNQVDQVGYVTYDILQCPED

Compound	Inhibition factor (IF) [1]	Inhibition factor (IF) [2]	gelatinase B inhibitory activity in the plate assay (in words)	Inhibition factor (IF) [4]	also measured
Cc1c2c(c(O)c3c(O)ccc(Cl)c13)C(=O)C1(O)C(O)=C(C(N)=O)C(=O)C(N(C)C)C1C2 (stereo not drawn) [4-epianhydrochlortetracycline HCl]	–	–	less active	–	Inhibition factor (IF) [3]: 3
CN(C)C1C(=O)C(C(N)=O)=C(O)C2(O)C(=O)C3=C(O)c4c(O)ccc(Cl)c4C(C)(O)C3CC12 (stereo not drawn) [4-epichlortetracycline HCl]	9	precipitation	less active	3	–
CN(C)c1ccc(O)c2c1C[C@H]1C[C@H]3[C@@H](N(C)C)C(O)=C(C(N)=O)C(=O)[C@@]3(O)C(O)=C1C2=O [4-epiminocycline HCl]	–	3	less active	–	–
CN(C)[C@@H]1C(O)=C(C(N)=O)C(=O)[C@@]2(O)C(O)=C3C(=O)c4c(O)cccc4C[C@H]3C[C@@H]12.Cl [6-deoxy-6-demethyltetracycline HCl]	5	8	–	3	–
Cc1c2c(c(O)c3c(O)ccc(Cl)c13)C(=O)C1(O)C(O)=C(C(N)=O)C(=O)C(N(C)C)C1C2 (stereo not drawn) [anhydrochlortetracycline HCl]	–	–	–	–	Inhibition factor (IF) (tetracycline concentration 1.67 mg/ml, HCl): 2; Inhibition factor (IF) [3]: 6
CN(C)[C@@H]1C(O)=C(C(N)=O)C(=O)[C@@]2(O)C(O)=C3C(=O)c4c(O)ccc(Cl)c4[C@@](C)(O)[C@H]3C[C@@H]12 [chlortetracycline HCl]	27	45	–	9	gelatinase B inhibitory activity in the plate assay (in words) (listed as Chlortetracycline HCl, HCl): most potent inhibitor; gelatinase B inhibitory activity in the plate assay (in words) (listed as Chlortetracycline, HCl): more active as a gelatinase inhibitor than the antibiotically more potent minocycline; also recorded: much more active than tetracycline; also recorded: most active
CN(C)[C@@H]1C(=O)C(C(N)=O)=C(O)[C@@]2(O)C(=O)C[C@@H]([C@]3(C)OC(=O)c4c(O)ccc(Cl)c43)C[C@@H]12 [isochlortetracycline HCl]	–	3	–	–	–
C=C1c2cccc(O)c2C(=O)C2=C(O)[C@]3(O)C(=O)C(C(N)=O)=C(O)[C@@H](N(C)C)[C@@H]3[C@@H](O)[C@H]12 [metacycline HCl]	8	27	very active	3	–
CN(C)[C@@H]1C(O)=C(C(N)=O)C(=O)[C@@]2(O)C(O)=C3C(=O)c4c(O)cccc4[C@@](C)(O)[C@H]3C[C@@H]12 [tetracycline HCl]	3	8	–	–	–

The next lines start with results.

Inhibition factor (IF) [1]	Inhibition factor (IF) [2]	gelatinase B inhibitory activity in the plate assay (in words)	Inhibition factor (IF) [4]	Compound	also measured
3	–	–	–	4-epitetracycline HCl	–
–	precipitation	–	–	7-aminominocycline HCl	–
3	precipitation	more active	2	Cc1c2c(c(O)c3c(O)cccc13)C(=O)C1(O)C(O)=C(C(N)=O)C(=O)C(N(C)C)C1C2 (stereo not drawn) [4-epianhydrotetracycline HCl]	–
3	20	more active	–	CN(C)C1C(=O)C(C(N)=O)=C(O)C2(O)C(=O)C3=C(O)c4c(O)cccc4C(C)(O)C3C(O)C12 (stereo not drawn) [4-epioxytetracyline base]	–
–	–	not active	–	CN(C)[C@@H]1C(O)=C(C(N)=O)C(=O)[C@@]2(O)C(O)=C3C(=O)c4c(O)ccc(Cl)c4[C@@H](O)[C@H]3C[C@@H]12 [demethylchlortetracycline HCl]	–
–	–	not active	–	C[C@H]1c2cccc(O)c2C(=O)C2=C(O)[C@]3(O)C(=O)C(C(N)=O)=C(O)[C@@H](N(C)C)[C@@H]3[C@@H](O)[C@@H]21 [doxycycline hyclate]	–
